Test results taken from patent publication US7371524B2, “Substituted azaporphyrins as fluorescence labels” (priority 2003, dated 2008).

Tests used:
Type in all cases: physicochemical
[1] = Fluorescence intensity and polarization of free dye in buffers and glycerol (solvent sensitivity); conditions: for solvent sensitivity of fluorescence intensity: buffer, buffer plus serum, glycerol; for Fluorescence Intensity (I), BBS / Polarization (mp), BBS: borate buffered saline pH 8.0; for Fluorescence Intensity (I), TDx Buffer: intensities comparable only horizontally
Description: The performance of a fluorophore (fluorescent moiety) can be partly assessed by measurements on the free dye i.e., not in a complete fluorescent probe. Meaningful parameters in this kind of test include fluorescence intensity and polarization/anisotropy which usually are altered when the fluorophore is exposed to different ionic strengths, specific ions or biomolecules such as are present in blood serum. These effects may be thought of as “solvent effects” and may be produced either by changes in the interactions between molecules of the fluorophore to change the state of aggregation or between fluorophore molecules and the components of the solvent (nonspecific binding, NSB).
In Table 1 the performance of any one dye can be judged by the changes in fluorescence intensity (I), and/or the changes in polarization (mp, milli-polarization units) as one proceeds horizontally across the table. The “perfect” fluorescence label would have the same values for each of these parameters regardless of the solvent composition.
Abbreviations: mp: […]; TDx Buffer: Commercial buffer used in fluorescence polarization assays; Pc: phthalocyanine; BBS: Borate buffered saline (0.25 M NaCl, 0.0232 M boric acid and 0.00179 M sodium tetraborate. The pH is finally adjusted to 8.0+/−0.05 with 1M NaOH). When serum was tested, 25 μl of whole serum was added to 1 ml of BBS (containing 25 μl of the dye already added). Note that the relative concentrations of the various fluorophores is not known so that comparisons of fluorescence intensities are meaningful only when proceeding in a horizontal direction. An alternative to BBS for manipulating LJB-3 in aqueous solutions is borate buffered KCl (BBKCl) which is made by mixing 33.1 ml of 0.70 M boric acid, 4.0 ml of 0.50 M K2B4O7, 75 ml of 4.0 M KCl and water to make 1 liter: pH ca. 8.1.
Fluorescence measurements: These were made in a transient state polarization fluorometer (FAST-1, Hyperion, Inc. Miami, Fla.)

[2] = Near infrared absorbance of dye
[3] = Passage through membranes and gel permeation chromatography (micelle formation); conditions: PEG dye at 10^−4 M and above
Description: In addition, an advantage emerges in that micelle formation by the PEG is absent. […] Also, the dye moves in the void volume in gel permeation chromatography designed to separate macromolecules from small molecules.

Substance | solvent sensitivity of fluorescence intensity [1] | Fluorescence Intensity (I), BBS [1] | Polarization (mp), BBS [1] [mp] | Fluorescence Intensity (I), Glycerol [1] | Polarization (mp), Glycerol [1] [mp] | Polarization (mp), TDx Buffer [1] | Fluorescence Intensity (I), TDx Buffer [1] | sensitivity to ionic strength [1] | near infrared absorbance maximum [2] [nm] | behaviour on membranes (30K daltons) and in gel permeation chromatography [3]
Bis-hydroxy (2,3Dicarboxyphthalocyanino) Silicon IV | less sensitive to serum and solvent than is the Al compound | – | – | – | – | – | – | – | – | –
DiphosphatoSidicarboxyphthalocyanine | – | 1078 | 2.4 | 454 | 105 | 6.7 mp | 1069 | – | – | –
Hydroxyaluminumphthalocyaninetrisulfonate [Al Pc trisulfonate, reference compound] | very solvent-sensitive | 520 | 3.4 | 3155 | 236 | 1.7 mp | 1108 | strong sensitivity to ionic strength | – | –
dihydroxy dicarboxy silicon phthalocyanine sulfonate [LJB-3] | almost the same fluorescence output in buffer, buffer plus serum or glycerol alone | 741 | 2.0 | 1351 | 199 | −.03 mp | 1230 | – | 679 | behaves as expected for a molecule of its formula weight
